Laboratory results as given in patent publication US7138238B2, “Ligand sensor devices and uses thereof” (priority 2001, dated 2006).
Read-outs that look alike come from different tables or passages of the source. Primed or numbered codes have the meaning given here. Ends that are not written are not given here. Biotin′ = not defined here

Columns and labels:
[1] = tested on: feline skeletal muscle homogenate; experiment: Ligand sensor device binding assay, feline muscle homogenate; parameters: species or system cat
Protocol: (§1) Identification of a peptide of interest. Mice were euthanized with carbon dioxide gas and cats were euthanized with an overdose of pentobarbital administered intravenously (the use of animals was approved by the Auburn University Animal Care and Use Committee). After death, animals were perfused with ice-cold Phosphate Buffered Saline (PBS). Samples of mouse and cat skeletal muscle, mouse kidney, liver and brain were harvested. Tissue aliquots (200 mg) were homogenized in 4 ml PBS using a manual homogenizer. Immediately after homogenization samples were microcentrifuged for 10 min at 3,000 rpm, and the supernatants containing tissue vesicles were separated from the pellets. […] Vesicle concentration and integrity were examined by dark-field microscopy (Vodyanoy et al. (1994) Langmuir 10: 1354–1357). Dilutions of tissue samples were prepared in PBS as follows: 1:5, 1:25, 1:125, and 1:625. To perform the blocking experiment, free ASSLNIA peptide (1 mg/ml) synthesized by Research Genetics, Inc. (Huntsville, Ala., USA) was added to the murine skeletal muscle tissue homogenate (50 mg/ml) and incubated at room temperature for 1 hour with agitation. Protein concentration in tissue samples was determined using Bio-Rad® Protein Assay Kit (Bio-Rad Laboratories, Hercules, Calif., USA).
A 7-mer phage display peptide library (New England Biolabs, Inc., Beverly, Mass., USA) was screened as described in Samoylova and Smith (1999) Muscle & Nerve 22: 460–466.
Preparation of the sensor. AT-cut planar quartz crystal sensors with a 5 MHz nominal oscillating frequency were purchased from Maxtek, Inc. Circular gold electrodes were deposited on both sides of the crystal sensor for the electrical connection to the oscillatory circuit. The sensor was prepared to be coupled to the peptide by the addition of a Langmuir-Blodgett film of biotinylated lipid. Lipid monolayer depositions were carried out using a Langmuir-Blodgett (LB) film balance KSV 2200 LB (KSV-Chemicals, Finland). This fully computerized system includes a Wilhelmy-type surface balance (range 0–100 mN/m; sensitivity 0.05 mN/m), a Teflon trough (45×15 cm^2), a variable speed motor-driven Teflon barrier (0–200 mm/min), and a laminar flow hood. The trough was mounted on a 200 kg marble table. Vibration control was provided by interposing rubber shock absorbers and by mounting the laminar flow hood on a separate bench. Surface pressure was monitored by use of a sandblasted platinum plate of 4-cm perimeter. The temperature of the aqueous subphase (20° C. ±0.1° C.) was controlled by water circulation through a quartz tube coil on the bottom of the trough. The temperature of the aqueous subphase was measured by a thermistor located just below the air/liquid interface. […]

murine liver homogenate = experiment: Ligand sensor device selectivity assay, murine liver homogenate; assay type: binding, mouse
Protocol: as §1
(§2) Coupling the peptide of interest to the sensor. The sensor, prepared as described above by the addition of a Langmuir-Blodgett film of biotinylated lipid, was then coupled to the peptide of interest by molecular assembly with streptavidin. Streptavidin was diluted to a final concentration of 0.01 mg/ml in the subphase solution and exposed to the LB film for 2 hours; the film was then rinsed with distilled water and dried for 2 min in ambient air. […] If necessary, this preparation step could be followed by a blocking step with a biotin solution. In this manner, the peptide of interest was coupled with the phospholipid via molecular assembly with streptavidin (see FIG. 1), thereby coupling the peptide of interest to the sensor to create the ligand sensor device (LSD). Each LSD was placed in an individual Petri dish and stored no longer than 24 hours at 4° C. until affinity assays were performed.
(§3) Quantifying the signal output from the ligand sensor device (LSD). Measurements were carried out using a PM-740 Maxtek plating monitor with a frequency resolution of 0.5 Hz at 5 MHz. […]
(§4) To evaluate the affinity of a ligand, the LSD was positioned in the probe arm of the instrument just before delivery of samples. Immediately after recording was started, 1000 μl phosphate buffered saline (PBS) was delivered with a pipette to the dry sensor surface and voltage was recorded for 4–8 minutes. […] Voltage output of the LSD was recorded and records were analyzed offline. […]

murine brain homogenate = experiment: Ligand sensor device selectivity assay, murine brain homogenate; assay type: binding, mouse
Protocol: as §1, §2, §3, §4

[2] = biological target: murine skeletal muscle homogenates; experiment: Ligand sensor device (acoustic wave sensor) binding assay, murine muscle homogenate; parameters: species or system mouse; conditions: for Kd: read-out: apparent dissociation constant Kd
Protocol: as §1, with “USA). […]” for “USA).”
Preparation of the sensor. AT-cut planar quartz crystal sensors with a 5 MHz nominal oscillating frequency were purchased from Maxtek, Inc. Circular gold electrodes were deposited on both sides of the crystal sensor for the electrical connection to the oscillatory circuit. The sensor was prepared to be coupled to the peptide by the addition of a Langmuir-Blodgett film of biotinylated lipid. Lipid monolayer depositions were carried out using a Langmuir-Blodgett (LB) film balance KSV 2200 LB (KSV-Chemicals, Finland). This fully computerized system includes a Wilhelmy-type surface balance (range 0–100 mN/m; sensitivity 0.05 mN/m), a Teflon trough (45×15 cm^2), a variable speed motor-driven Teflon barrier (0–200 mm/min), and a laminar flow hood. The trough was mounted on a 200 kg marble table. Vibration control was provided by interposing rubber shock absorbers and by mounting the laminar flow hood on a separate bench. Surface pressure was monitored by use of a sandblasted platinum plate of 4-cm perimeter. The temperature of the aqueous subphase (20° C. ±0.1° C.) was controlled by water circulation through a quartz tube coil on the bottom of the trough. The temperature of the aqueous subphase was measured by a thermistor located just below the air/liquid interface.
Monolayers were transferred onto the gold surface of an acoustic wave sensor using the Langmuir-Blodgett technique. Lipid solutions were spread on the aqueous subphase as hexane solutions (1 mg/ml) containing 2% ethanol (Ito et al. (1989) Thin Solid Films 180: 1–13). The lipid solutions contained phospholipid (N (biotinoyl)-1,2-dihexadecanoyl-SN-glycero-3-phosphoethanolamine). The aqueous subphase was a solution containing 55 mM KCl, 4 mM NaCl, 0.1 mM CaCl2, 1 mM MgCl2 and 2 mM 3-(N-morpholino)-propanesulfonic acid (MOPS) made with deionized double distilled water (pH 7.4). After spreading, the monolayer was allowed to equilibrate and stabilize for 10 min at 19° C.

murine kidney homogenate = experiment: Ligand sensor device selectivity assay, murine kidney homogenate; assay type: binding, mouse
Protocol: as §1, §2
Quantifying the signal output from the ligand sensor device (LSD). Measurements were carried out using a PM-740 Maxtek plating monitor with a frequency resolution of 0.5 Hz at 5 MHz. The voltage output from the Maxtek device is directly related to the resonance frequency of the quartz crystal sensor. Changes in the resonance frequency of the quartz crystal sensor were used to monitor the binding of homogenate vesicles to the sensor surface.
To evaluate the affinity of a ligand, the LSD was positioned in the probe arm of the instrument just before delivery of samples. Immediately after recording was started, 1000 μl phosphate buffered saline (PBS) was delivered with a pipette to the dry sensor surface and voltage was recorded for 4–8 minutes. The PBS was then removed carefully with a plastic pipette tip and a new recording was initiated. Tissue homogenates of different dilutions were added sequentially to the sensor and the same measuring procedure was followed after each addition. Each experiment was replicated 2–4 times, and the temperature of all samples was 25° C. Voltage output of the LSD was recorded and records were analyzed offline.
Binding selectivity of the Ligand Sensor Device.

[3] = Table 2, feline muscle homogenate
[4] = Table 1, blocked muscle: homogenate (50 mg/ml) incubated with free peptide (1 mg/ml) 1 hour at room temperature
[5] = Table 2, murine muscle homogenate

7-mer peptide selected in vivo for murine myofibers by phage display; coupled to the sensor as ASSLNIAGGGSK-Biotin (SEQ ID NO:3) (ASSLNIAGGGSK-{Biotin′}; also: coupled to the sensor)
Mmax [1, 3]: 32.8 ± 2.0 ng/cm^2 | apparent dissociation constant Kd [1, 3]: 370 ± 50 µg/mL | Hill coefficient ([1]; Table 2, feline muscle homogenate, equation 2): 0.93 ± 0.04 | sensor response ([1]; feline muscle homogenates, compared to murine muscle): appreciable, but lower responses | sensitivity (S), slope of dose response (murine liver homogenate; Table 3, murine liver): 67.3 ± 6.0 V/decade | sensor response (murine liver homogenate; murine liver preparation): insignificant responses | Selectivity coefficient, K (murine liver homogenate; murine liver, K = Stissue/Smuscle): (5.0 ± 1.5) × 10^−1 relative units | Activity ratio, R (murine liver homogenate; murine liver, R = ΔCmuscle/ΔCtissue at protein concentration 0.01 mg/ml): (1.1 ± 0.4) × 10^−3 relative units | sensitivity (S), slope of dose response (murine brain homogenate; Table 3, murine brain): 62.5 ± 16 V/decade | sensor response (murine brain homogenate; murine brain preparation): insignificant responses | Selectivity coefficient, K (murine brain homogenate; murine brain, K = Stissue/Smuscle): (4.6 ± 1.4) × 10^−1 relative units | Activity ratio, R (murine brain homogenate; murine brain, R = ΔCmuscle/ΔCtissue at protein concentration 0.01 mg/ml): (3.4 ± 1.1) × 10^−3 relative units | apparent dissociation constant Kd [2, 4]: 320 ± 50 µg/mL | apparent maximal surface concentration of protein Mmax [2, 4]: 34.4 ± 3.0 ng/cm^2 | apparent dissociation constant Kd ([2]; Table 1, murine muscle homogenate, calculated from Hill plots): 280 µg/mL | apparent maximal surface concentration of protein Mmax ([2]; Table 1, murine muscle homogenate, estimated from increase of sensor voltage): 54.0 ± 4.0 ng/cm^2 | Mmax [2, 5]: 50.5 ± 3.0 ng/cm^2 | apparent dissociation constant Kd [2, 5]: 320 ± 50 µg/mL | Hill coefficient ([2]; Table 2, murine muscle homogenate, equation 2): 0.92 ± 0.04 | sensitivity (S), slope of dose response ([2]; Table 3, murine muscle): 134 ± 20.0 V/decade | apparent dissociation constant, level ([2]; assuming only a fraction of molecules on vesicle surface bind the peptide): subnanomolar level | Kd ([2]; corrected for target molecules being ~0.5% of vesicle mass): 5 to 10 nM | Selectivity coefficient, K ([2]; murine muscle (reference), K = Stissue/Smuscle): 1.0 relative units | Activity ratio, R ([2]; murine muscle (reference), protein concentration 0.01 mg/ml): 1.0 relative units | time to approach steady-state signal output τ2 ([2]; murine muscle homogenate, each concentration, FIG. 2): 70 ± 20 s | initial delay in signal output response τ1 ([2]; murine muscle homogenate, independent of concentration, FIG. 2): 8 ± 1 s | sensor response ([2]; murine muscle homogenates): strong response | protein concentration at which signal was saturated ([2]; murine muscle homogenates, FIG. 3): about 5.0 mg/ml | sensor signal after blocking ([2]; preincubation of muscle homogenates with free peptide): significantly reduced signal | Kd ([2]; speculating target molecule of about 75–150 kD): 1000 to 2000 nM | kidney homogenate needed to induce same response as 0.01 mg/ml muscle homogenate (murine kidney homogenate): more than 100 mg/ml | sensitivity (S), slope of dose response (murine kidney homogenate; Table 3, murine kidney): 41.8 ± 7.0 V/decade | selective preference for ligand(s) in muscle over kidney homogenates, factor (murine kidney homogenate; at 0.01 mg/ml muscle homogenate): more than 10,000 | sensor response (murine kidney homogenate; murine kidney preparation): insignificant responses | Selectivity coefficient, K (murine kidney homogenate; murine kidney, K = Stissue/Smuscle): (3.1 ± 1.0) × 10^−1 relative units
